Measured values taken from ChEMBL document CHEMBL1201862, “PubChem BioAssay data set” (2004).
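Results reflect a 48-hour exposure of cells in 96-well plates to compound at five concentrations. GI50: concentration for 50% inhibition of growth.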 The source made the active and inactive calls. Rule as the data show it: active = GI50 up to about 1.1 µM and inactive = higher.

Legend:
Experiment in all cases: inhibition of tumour cell growth, NCI panel, 48 h
NCI-H522 = tested on: NCI-H522
PC-3 = tested on: PC-3
DU-145 = tested on: DU-145
ACHN = tested on: ACHN
Malme-3M = tested on: Malme-3M
SK-MEL-28 = tested on: SK-MEL-28
RXF 393 = tested on: RXF 393
KM12 = tested on: KM12
CAKI-1 = tested on: CAKI-1
HCT-116 = tested on: HCT-116
SW-620 = tested on: SW-620
SK-MEL-5 = tested on: SK-MEL-5
NCI-H460 = tested on: NCI-H460
OVCAR-5 = tested on: OVCAR-5
MDA-MB-231 = tested on: MDA-MB-231
NCI/ADR-RES = tested on: NCI/ADR-RES
UACC-257 = tested on: UACC-257
EKVX = tested on: EKVX
OVCAR-4 = tested on: OVCAR-4
HL-60 = tested on: HL-60

Row | Structure (SMILES) | GI50 (NCI-H522) | GI50 (PC-3) | GI50 (DU-145) | GI50 (ACHN) | GI50 (Malme-3M) | GI50 (SK-MEL-28) | GI50 (RXF 393) | GI50 (KM12) | GI50 (CAKI-1) | GI50 (HCT-116) | GI50 (SW-620) | GI50 (SK-MEL-5) | GI50 (NCI-H460) | GI50 (OVCAR-5) | GI50 (MDA-MB-231) | GI50 (NCI/ADR-RES) | GI50 (UACC-257) | GI50 (EKVX) | GI50 (OVCAR-4) | GI50 (HL-60)
1 | C=C(C=O)c1c2c(nc3ccccc13)C(=O)c1ccccc1C2=O | 0.366 µM (active) | 1.29 µM (inactive) | 0.286 µM (active) | 0.434 µM (active) | 1.42 µM (inactive) | 0.684 µM (active) | 0.304 µM (active) | 1.22 µM (inactive) | 0.52 µM (active) | 0.619 µM (active) | 0.518 µM (active) | 0.162 µM (active) | 0.581 µM (active) | 1.9 µM (inactive) | 1.18 µM (inactive) | 0.265 µM (active) | 1.49 µM (inactive) | 1.19 µM (inactive) | 1.77 µM (inactive) | 0.31 µM (active)
2 | CC1=C[C@H]([C@H]2C=C(C)C(C(N)=O)=CN2Cc2c(Cl)cccc2Cl)N(Cc2c(Cl)cccc2Cl)C=C1C(N)=O | 57.1 µM (inactive) | > 75 µM (inactive) | > 75 µM (inactive) | > 75 µM (inactive) | > 75 µM (inactive) | > 75 µM (inactive) | 74.5 µM (inactive) | 55.5 µM (inactive) | > 75 µM (inactive) | > 75 µM (inactive) | > 75 µM (inactive) | > 75 µM (inactive) | > 75 µM (inactive) | > 75 µM (inactive) | > 75 µM (inactive) | > 75 µM (inactive) | 73.8 µM (inactive) | > 75 µM (inactive) | 55.5 µM (inactive) | > 75 µM (inactive)
3 | Cc1c(C=C(C#N)C#N)c(=O)n(C)c(=O)n1C | 31.4 µM (inactive) | > 100 µM (inactive) | > 100 µM (inactive) | > 100 µM (inactive) | > 100 µM (inactive) | > 100 µM (inactive) | > 100 µM (inactive) | > 100 µM (inactive) | > 100 µM (inactive) | > 100 µM (inactive) | > 100 µM (inactive) | > 100 µM (inactive) | > 100 µM (inactive) | > 100 µM (inactive) | > 100 µM (inactive) | > 100 µM (inactive) | > 100 µM (inactive) | 81.5 µM (inactive) | > 100 µM (inactive) | > 100 µM (inactive)
4 | Cn1c2ccccc2c(=O)c2c(O)cc3c(c21)C=CC1(CCCC1)O3 | > 100 µM (inactive) | > 100 µM (inactive) | > 100 µM (inactive) | > 100 µM (inactive) | > 100 µM (inactive) | > 100 µM (inactive) | 22.7 µM (inactive) | > 100 µM (inactive) | > 100 µM (inactive) | > 100 µM (inactive) | > 100 µM (inactive) | > 100 µM (inactive) | > 100 µM (inactive) | 33.7 µM (inactive) | > 100 µM (inactive) | > 100 µM (inactive) | > 100 µM (inactive) | 20.8 µM (inactive) | 41.7 µM (inactive) | > 100 µM (inactive)
5 | CSC(=S)Nc1cc(C)cc(C)n1 | 18.7 µM (inactive) | > 31.6 µM (inactive) | > 31.6 µM (inactive) | > 31.6 µM (inactive) | > 31.6 µM (inactive) | > 31.6 µM (inactive) | > 31.6 µM (inactive) | > 31.6 µM (inactive) | > 31.6 µM (inactive) | > 10 µM (inactive) | > 31.6 µM (inactive) | > 66.4 µM (inactive) | > 31.6 µM (inactive) | > 31.6 µM (inactive) | > 100 µM (inactive) | > 31.6 µM (inactive) | > 31.6 µM (inactive) | > 31.6 µM (inactive) | > 31.6 µM (inactive) | > 31.6 µM (inactive)
6 | NC(=S)c1cccc(C2Nc3ccccc3O2)c1 (stereo not given) | 71.1 µM (inactive) | 51.2 µM (inactive) | > 100 µM (inactive) | 40.2 µM (inactive) | > 100 µM (inactive) | > 100 µM (inactive) | > 100 µM (inactive) | 37.2 µM (inactive) | > 100 µM (inactive) | > 100 µM (inactive) | 75.7 µM (inactive) | 23.5 µM (inactive) | 49.2 µM (inactive) | > 100 µM (inactive) | 6.25 µM (inactive) | 43.9 µM (inactive) | 22.1 µM (inactive) | 0.019 µM (active) | 31.5 µM (inactive) | 12.1 µM (inactive)
7 | CCC(CC)C(=O)OC[n+]1cccc(-c2c(COC(=O)NC(C)C)c(COC(=O)NC(C)C)c3n2CCC3)c1 | 56.2 µM (inactive) | > 100 µM (inactive) | > 100 µM (inactive) | 40.8 µM (inactive) | > 100 µM (inactive) | > 100 µM (inactive) | 61.4 µM (inactive) | > 100 µM (inactive) | 49.4 µM (inactive) | > 100 µM (inactive) | > 100 µM (inactive) | > 100 µM (inactive) | 45.8 µM (inactive) | > 100 µM (inactive) | > 100 µM (inactive) | 63.2 µM (inactive) | > 100 µM (inactive) | > 100 µM (inactive) | > 100 µM (inactive) | 33.1 µM (inactive)
8 | Cc1cc(S(=O)(=O)Nc2nnc3cc(C(F)(F)F)cc(C)n23)c(S)cc1Cl | > 100 µM (inactive) | > 95.3 µM (inactive) | > 100 µM (inactive) | > 100 µM (inactive) | > 100 µM (inactive) | > 100 µM (inactive) | > 100 µM (inactive) | 45.6 µM (inactive) | 97.5 µM (inactive) | > 81.8 µM (inactive) | > 100 µM (inactive) | 64.4 µM (inactive) | 19.5 µM (inactive) | > 84.9 µM (inactive) | > 83 µM (inactive) | 45.5 µM (inactive) | > 100 µM (inactive) | > 100 µM (inactive) | > 100 µM (inactive) | > 100 µM (inactive)
9 | COC(=O)c1ccccc1C1CN=NC12Cc1c(C)ccc(C)c1C2=O (stereo not given) | > 100 µM (inactive) | > 100 µM (inactive) | > 100 µM (inactive) | > 100 µM (inactive) | 36.6 µM (inactive) | > 100 µM (inactive) | > 100 µM (inactive) | > 100 µM (inactive) | > 100 µM (inactive) | 82.6 µM (inactive) | > 100 µM (inactive) | > 100 µM (inactive) | > 100 µM (inactive) | > 100 µM (inactive) | > 100 µM (inactive) | > 100 µM (inactive) | > 100 µM (inactive) | > 100 µM (inactive) | > 100 µM (inactive) | 37.6 µM (inactive)
10 | COc1c(O)c2ccccc2c2cc(O)ccc12 | 5.4 µM (inactive) | 16.6 µM (inactive) | 8.22 µM (inactive) | 3.55 µM (inactive) | 1.66 µM (inactive) | 4.91 µM (inactive) | 9.93 µM (inactive) | 11.6 µM (inactive) | 11.2 µM (inactive) | 4.53 µM (inactive) | 3.18 µM (inactive) | 2.17 µM (inactive) | 7.69 µM (inactive) | 13.4 µM (inactive) | 3.91 µM (inactive) | 6.98 µM (inactive) | 2.1 µM (inactive) | 18.1 µM (inactive) | 6.56 µM (inactive) | 2.86 µM (inactive)
11 | CCOC(=O)c1ccc2nc(NC(=O)COC(=O)CSc3nc(C)cc(C)n3)sc2c1 | 64 µM (inactive) | 40.2 µM (inactive) | 28.3 µM (inactive) | 46.5 µM (inactive) | > 100 µM (inactive) | 97.3 µM (inactive) | 30.3 µM (inactive) | > 100 µM (inactive) | 26.3 µM (inactive) | 77.3 µM (inactive) | > 100 µM (inactive) | 53.3 µM (inactive) | 38.7 µM (inactive) | 20.4 µM (inactive) | 66.4 µM (inactive) | 48.4 µM (inactive) | > 100 µM (inactive) | 18.5 µM (inactive) | 42.9 µM (inactive) | 15.8 µM (inactive)
12 | CCOC(=O)Nc1sc2c(c1C#N)CC(C)CC2 (stereo not given) | 1.25 µM (inactive) | 5.35 µM (inactive) | 20.9 µM (inactive) | 14.7 µM (inactive) | 8.55 µM (inactive) | 17.1 µM (inactive) | 5.38 µM (inactive) | 3.9 µM (inactive) | 21.8 µM (inactive) | 4 µM (inactive) | 4.74 µM (inactive) | 4.8 µM (inactive) | 3.41 µM (inactive) | 16.3 µM (inactive) | 5.56 µM (inactive) | 1.96 µM (inactive) | 11 µM (inactive) | 24.7 µM (inactive) | 18.7 µM (inactive) | 0.1 µM (active)
13 | Clc1cc(OCC23CC4CC(CC(C4)C2)C3)nc(OCC23CC4CC(CC(C4)C2)C3)n1 | > 100 µM (inactive) | > 100 µM (inactive) | > 100 µM (inactive) | > 100 µM (inactive) | > 100 µM (inactive) | > 100 µM (inactive) | > 100 µM (inactive) | > 100 µM (inactive) | > 100 µM (inactive) | > 100 µM (inactive) | > 100 µM (inactive) | > 100 µM (inactive) | > 100 µM (inactive) | > 100 µM (inactive) | > 100 µM (inactive) | > 100 µM (inactive) | > 100 µM (inactive) | > 100 µM (inactive) | > 100 µM (inactive) | > 100 µM (inactive)
14 | C=CCn1c(=O)c2ccccc2[n+]2c(-c3cccc([N+](=O)[O-])c3)csc12 | 36.1 µM (inactive) | 30.9 µM (inactive) | 50.4 µM (inactive) | > 100 µM (inactive) | > 100 µM (inactive) | 66.7 µM (inactive) | 37.2 µM (inactive) | 45.4 µM (inactive) | 97.3 µM (inactive) | 38.9 µM (inactive) | > 100 µM (inactive) | 11.4 µM (inactive) | 42.1 µM (inactive) | > 100 µM (inactive) | 87.3 µM (inactive) | 17.1 µM (inactive) | 36.3 µM (inactive) | 33.7 µM (inactive) | 64.4 µM (inactive) | 25.9 µM (inactive)
